{"source": "the Kinase Knowledgebase extract (Sharma et al. 2016)"}
{"molecular_target": "CDK2 (UniProt P24941)", "assay": "Enzyme Assay", "conditions": "concentration not given here", "units": {"inhibition": "%"}}
{"smiles": "Cc1cccc(CC(=O)Nc2sc(C(C)C)cc2C(N)=O)c1", "inhibition": 100}
{"smiles": "CN(C)CCCC(=O)Nc1sc(Cc2ccccc2)cc1C(N)=O", "inhibition": 100}
{"smiles": "COc1cc(CC(=O)Nc2scc(C)c2C(N)=O)cc(OC)c1", "inhibition": 100}
{"smiles": "CC(=O)Nc1ccc(C(=O)Nc2sc(C(C)c3ccccc3)cc2C(N)=O)cc1", "note": "(centres undefined)", "inhibition": 100}
{"smiles": "CC(C)c1cc(C(N)=O)c(NC(=O)C2CCCN2C)s1", "note": "(centres undefined)", "inhibition": 100}
{"smiles": "CC(c1ccccc1)c1cc(C(N)=O)c(NC(=O)C(c2ccccc2)C(C)C)s1", "note": "(centres undefined)", "inhibition": 100}
{"smiles": "CC(c1ccccc1)c1cc(C(N)=O)c(NC(=O)CC2CCc3ccccc32)s1", "note": "(centres undefined)", "inhibition": 100}
{"smiles": "COc1ccccc1OCC(=O)Nc1sc(C)c(C)c1C(N)=O", "inhibition": 100}
{"smiles": "CC(=O)c1ccc(C(=O)Nc2sc(Cc3ccccc3)cc2C(N)=O)cc1", "inhibition": 100}
{"smiles": "NC(=O)c1c(NC(=O)c2ccccn2)sc2c1CCCC2", "inhibition": 100}
{"smiles": "NC(=O)c1cc(-c2ccccc2)sc1NC(=O)c1ccc(Cl)cc1", "inhibition": 100}
{"smiles": "NC(=O)CN(C(=O)c1ccco1)c1sc(Cc2ccccc2)cc1C(N)=O", "inhibition": 100}
{"smiles": "COc1ccc(C)c(C(=O)Nc2sc(Cc3ccccc3)cc2C(N)=O)c1", "inhibition": 100}
{"smiles": "CC(c1ccccc1)c1cc(C(N)=O)c(NC(=O)c2ccnc3ccccc23)s1", "note": "(centres undefined)", "inhibition": 100}
{"smiles": "Cc1csc(NC(=O)c2ccccc2S(C)(=O)=O)c1C(N)=O", "inhibition": 100}
{"smiles": "CC(C)c1cc(C(N)=O)c(NC(=O)CCC2CCCC2)s1", "inhibition": 100}
{"smiles": "COc1cccc2cc(C(=O)Nc3sc(C)c(C)c3C(N)=O)oc12", "inhibition": 100}
{"smiles": "NC(=O)c1cc(-c2ccccc2)sc1NC(=O)CC1CCCCCC1", "inhibition": 100}
{"smiles": "Cc1csc(NC(=O)c2cccc(S(C)(=O)=O)c2)c1C(N)=O", "inhibition": 100}
{"smiles": "CC(c1ccccc1)c1cc(C(N)=O)c(NC(=O)c2cccc3cccnc23)s1", "note": "(centres undefined)", "inhibition": 100}
{"smiles": "COc1cccc(C(=O)Nc2sc(-c3ccccc3)cc2C(N)=O)c1", "inhibition": 100}
{"smiles": "CN1CCc2c(sc(NC(=O)c3cccc(I)c3)c2C(N)=O)C1", "inhibition": 100}
{"smiles": "Cc1sc(NC(=O)CCCC(=O)c2ccccc2)c(C(N)=O)c1C", "inhibition": 100}
{"smiles": "NC(=O)c1c(NC(=O)c2cccs2)sc2c1CCCC2", "inhibition": 100}
{"smiles": "Cc1sc(NC(=O)c2ccc(Cl)cc2Cl)c(C(N)=O)c1C", "inhibition": 100}
{"smiles": "CC(C)c1cc(C(N)=O)c(NC(=O)c2ccc(C#N)cc2)s1", "inhibition": 100}
{"smiles": "N#CC1(C(=O)Nc2sc3c(c2C(N)=O)CCCC3)CC1", "inhibition": 100}
{"smiles": "CC(c1ccccc1)c1cc(C(N)=O)c(NC(=O)c2ccc3ncccc3c2)s1", "note": "(centres undefined)", "inhibition": 100}
{"smiles": "Cc1csc(NC(=O)C2=COc3ccc(Cl)cc3C2)c1C(N)=O", "inhibition": 100}
{"smiles": "Cc1csc(NC(=O)CCCc2cccs2)c1C(N)=O", "inhibition": 100}
{"smiles": "Cc1csc(NC(=O)c2cnn(-c3ccccc3)c2C)c1C(N)=O", "inhibition": 100}
{"smiles": "Cc1sc(NC(=O)c2ccc(C(F)(F)F)cc2)c(C(N)=O)c1C", "inhibition": 100}
{"smiles": "CCC(=O)C(=O)Nc1sc2c(c1C(N)=O)CCCC2", "inhibition": 100}
{"smiles": "CC(=O)Nc1ccc(Br)cc1C(=O)Nc1sc2c(c1C(N)=O)CCN(C)C2", "inhibition": 100}
{"smiles": "Cc1sc(NC(=O)c2ccc(OC(C)C)cc2)c(C(N)=O)c1C", "inhibition": 100}
{"smiles": "COc1ccc(C(=O)Nc2sc(C)c(C)c2C(N)=O)cc1Cl", "inhibition": 100}
{"smiles": "NC(=O)c1c(NC(=O)c2c[nH]nc2N)sc2c1CCCC2", "inhibition": 100}
{"smiles": "Cc1ccc(C(=O)Nc2sc3c(c2C(N)=O)CCCC3)cc1", "inhibition": 100}
{"smiles": "CC(c1ccccc1)c1cc(C(N)=O)c(NC(=O)c2ccc3ccccc3n2)s1", "note": "(centres undefined)", "inhibition": 100}
{"smiles": "CC(c1ccccc1)c1cc(C(N)=O)c(NC(=O)Cc2cn(C)cn2)s1", "note": "(centres undefined)", "inhibition": 100}
{"smiles": "Cc1csc(NC(=O)c2ccc(S(C)(=O)=O)cc2)c1C(N)=O", "inhibition": 100}
{"smiles": "NC(=O)c1c(NC(=O)c2ccccc2)sc2c1CCCC2", "inhibition": 100}
{"smiles": "Cc1sc(NC(=O)c2ccc(-n3cccc3)cc2)c(C(N)=O)c1C", "inhibition": 100}
{"smiles": "CCN(CC)CCC(=O)Nc1sc(C)c(C)c1C(N)=O", "inhibition": 100}
{"smiles": "NC(=O)c1cc(-c2ccccc2)sc1NC(=O)Cc1ccccc1O", "inhibition": 100}
{"smiles": "CC(C)c1cc(C(N)=O)c(NC(=O)CCc2cccnc2)s1", "inhibition": 100}
{"smiles": "Cc1csc(NC(=O)CS(=O)(=O)c2ccccc2)c1C(N)=O", "inhibition": 100}
{"smiles": "Cc1ccc(C(=O)Nc2sc(-c3ccccc3)cc2C(N)=O)cc1O", "inhibition": 100}
{"smiles": "COc1ccc2[nH]c(C)c(CC(=O)Nc3sc4c(c3C(N)=O)CCN(C)C4)c2c1", "inhibition": 100}
{"smiles": "NC(=O)c1cc(-c2ccccc2)sc1NC(=O)c1ccccc1Cl", "inhibition": 100}
{"smiles": "NC(=O)c1c(NC(=O)c2cnccn2)sc2c1CCCC2", "inhibition": 100}
{"smiles": "Cc1sc(NC(=O)Cn2cc(C)c(=O)[nH]c2=O)c(C(N)=O)c1C", "inhibition": 100}
{"smiles": "NC(=O)c1cc(-c2ccccc2)sc1NC(=O)c1ccc2cc[nH]c2c1", "inhibition": 100}
{"smiles": "Cc1sc(NC(=O)c2coc3ccccc3c2=O)c(C(N)=O)c1C", "inhibition": 100}
{"smiles": "CC(C)c1cc(C(N)=O)c(NC(=O)/C=C/c2ccncc2)s1", "inhibition": 100}
{"smiles": "CN1CCc2c(sc(NC(=O)c3cc4c(Cl)cc(Cl)cc4[nH]3)c2C(N)=O)C1", "inhibition": 100}
{"smiles": "CC(C)=CC(=O)Nc1sc2c(c1C(N)=O)CCCC2", "inhibition": 100}
{"smiles": "CC1NC(=O)NC1CCCCCC(=O)Nc1sc2c(c1C(N)=O)CCN(C)C2", "note": "(centres undefined)", "inhibition": 100}
{"smiles": "CC(C)c1cc(C(N)=O)c(NC(=O)c2ccccc2F)s1", "inhibition": 100}
{"smiles": "NC(=O)c1cc(-c2ccccc2)sc1NC(=O)c1cc2ccccc2o1", "inhibition": 100}
{"smiles": "Cc1sc(NC(=O)c2cc(Cl)cc(Cl)c2)c(C(N)=O)c1C", "inhibition": 100}
{"smiles": "NC(=O)c1cc(Cc2ccccc2)sc1-n1cnc2ncnc(C(=O)O)c21", "inhibition": 100}
{"smiles": "NC(=O)c1c(NC(=O)c2ccc[nH]2)sc2c1CCCC2", "inhibition": 100}
{"smiles": "NC(=O)c1c(NC(=O)Cc2ccccc2)sc2c1CCCC2", "inhibition": 100}
{"smiles": "Cc1sc(NC(=O)c2cc(=O)c3ccccc3o2)c(C(N)=O)c1C", "inhibition": 100}
{"smiles": "CC(C)c1cc(C(N)=O)c(NC(=O)CCNC(N)=O)s1", "inhibition": 100}
{"smiles": "Cc1ccc(C)c(C(=O)Nc2sc(C(C)C)cc2C(N)=O)c1", "inhibition": 100}
{"smiles": "CC(c1ccccc1)c1cc(C(N)=O)c(NC(=O)C2CCc3ccccc3C2)s1", "note": "(centres undefined)", "inhibition": 100}
{"smiles": "NC(=O)c1c(NC(=O)c2ccncc2)sc2c1CCCC2", "inhibition": 100}
{"smiles": "Cc1cc(C)cc(CC(=O)Nc2sc(Cc3ccccc3)cc2C(N)=O)c1", "inhibition": 100}
{"smiles": "COc1ccc(/C=C\\C(=O)Nc2scc(C)c2C(N)=O)c(OC)c1", "inhibition": 100}
{"smiles": "CN1CCc2c(sc(NC(=O)Cc3c[nH]c4cccc(Cl)c34)c2C(N)=O)C1", "inhibition": 100}
{"smiles": "CC(c1ccccc1)c1cc(C(N)=O)c(NC(=O)c2ccc3ccccc3c2)s1", "note": "(centres undefined)", "inhibition": 100}
{"smiles": "COc1ccc(OC)c(/C=C\\C(=O)Nc2scc(C)c2C(N)=O)c1", "inhibition": 100}
{"smiles": "COc1cc(OC)cc(C(=O)Nc2sc(C)c(C)c2C(N)=O)c1", "inhibition": 100}
{"smiles": "Cc1noc(C)c1C(=O)Nc1sc(C(C)C)cc1C(N)=O", "inhibition": 100}
{"smiles": "Cc1cc(C(=O)Nc2sc(Cc3ccccc3)cc2C(N)=O)cc(C)c1O", "inhibition": 100}
{"smiles": "Cc1csc(CC(=O)c2c(-c3ccccc3)noc2C)c1C(N)=O", "inhibition": 100}
{"smiles": "NC(=O)c1c(NC(=O)c2cccnc2)sc2c1CCCC2", "inhibition": 100}
{"smiles": "CC(C)c1cc(C(N)=O)c(NC(=O)C2CCCCCC2)s1", "inhibition": 100}
{"smiles": "CC(c1ccccc1)c1cc(C(N)=O)c(NC(=O)C2=CN(C)CCC2)s1", "note": "(centres undefined)", "inhibition": 100}
{"smiles": "CC(C)c1cc(C(N)=O)c(NC(=O)C2CNC(=O)N2)s1", "note": "(centres undefined)", "inhibition": 100}
{"smiles": "C#CC(=O)N(c1ccccc1)c1sc(C(C)C)cc1C(N)=O", "inhibition": 100}
{"smiles": "NC(=O)c1ccccc1C(=O)Nc1sc(Cc2ccccc2)cc1C(N)=O", "inhibition": 100}
{"smiles": "CCC(NC(=O)CCl)C(=O)Nc1sc(C)c(C)c1C(N)=O", "note": "(centres undefined)", "inhibition": 100}
{"smiles": "COc1ccccc1/C=C\\C(=O)Nc1sc(C(C)c2ccccc2)cc1C(N)=O", "note": "(centres undefined)", "inhibition": 100}
{"smiles": "Cc1cnc(C(=O)Nc2sc(C(C)C)cc2C(N)=O)cn1", "inhibition": 100}
{"smiles": "Cc1sc(NC(=O)CCC(=O)c2cccs2)c(C(N)=O)c1C", "inhibition": 100}
{"smiles": "Cc1sc(NC(=O)Cc2c[nH]c3ccccc23)c(C(N)=O)c1C", "inhibition": 100}
{"smiles": "Cc1sc(NC(=O)c2cc3cc(O)ccc3[nH]2)c(C(N)=O)c1C", "inhibition": 100}
{"smiles": "CC(=O)NC(=O)C1CCCN1c1sc(-c2ccccc2)cc1C(N)=O", "note": "(centres undefined)", "inhibition": 100}
{"smiles": "CC(C)c1cc(C(N)=O)c(NC(=O)Cc2cccs2)s1", "inhibition": 100}
{"smiles": "NC(=O)c1cc(Cc2ccccc2)sc1NC(=O)c1c[nH]c2ccccc12", "inhibition": 100}
{"smiles": "NC(=O)c1cc(-c2ccccc2)sc1NC(=O)COc1ccccc1", "inhibition": 100}
{"smiles": "NC(=O)c1cc(Cc2ccccc2)sc1NC(=O)/C=C/c1ccccc1O", "inhibition": 100}
{"smiles": "Cc1csc(NC(=O)Cc2c(C)[nH]c3ccccc23)c1C(N)=O", "inhibition": 100}
{"smiles": "NC(=O)c1cc(-c2ccccc2)sc1NC(=O)Cc1ccc(F)cc1", "inhibition": 100}
{"smiles": "Cc1nc2cc(C(=O)Nc3sc(C)c(C)c3C(N)=O)ccc2[nH]1", "inhibition": 100}
{"smiles": "CN1CCc2c(sc(NC(=O)c3cc4cc(Cl)ccc4[nH]3)c2C(N)=O)C1", "inhibition": 100}
{"smiles": "CN1CCc2c(sc(NC(=O)c3cc(O)c4ccc(Br)cc4n3)c2C(N)=O)C1", "inhibition": 100}
{"smiles": "CN1CCc2c(sc(NC(=O)CCN3C(=O)c4ccccc4C3=O)c2C(N)=O)C1", "inhibition": 100}
{"smiles": "NC(=O)c1cc(-c2ccccc2)sc1NC(=O)C(F)c1ccccc1", "note": "(centres undefined)", "inhibition": 100}
{"smiles": "CC#CC(=O)Nc1sc2c(c1C(N)=O)CCCC2", "inhibition": 100}
{"smiles": "Cc1ccc(O)c(C(=O)Nc2sc(-c3ccccc3)cc2C(N)=O)c1", "inhibition": 100}
{"smiles": "Cc1csc(NC(=O)c2cc(-n3cccc3)ccc2O)c1C(N)=O", "inhibition": 100}
{"smiles": "CC(=O)N1CCC(C(=O)Nc2sc(C(C)c3ccccc3)cc2C(N)=O)CC1", "note": "(centres undefined)", "inhibition": 100}
{"smiles": "COc1cc(OC)c(C(=O)Nc2sc3c(c2C(N)=O)CCN(C)C3)c(OC)c1", "inhibition": 100}
{"smiles": "COc1cccc(OC)c1C(=O)Nc1sc(C)c(C)c1C(N)=O", "inhibition": 100}
{"smiles": "CC(c1ccccc1)c1cc(C(N)=O)c(NC(=O)c2cc(Cl)ccc2O)s1", "note": "(centres undefined)", "inhibition": 100}
{"smiles": "CC(C)c1cc(C(N)=O)c(NC(=O)c2cccc(C#N)c2)s1", "inhibition": 100}
{"smiles": "CC(NC(=O)C(C)Nc1sc(-c2ccccc2)cc1C(N)=O)C(=O)O", "note": "(centres undefined)", "inhibition": 100}
{"smiles": "NC(=O)c1cc(-c2ccccc2)sc1NC(=O)c1cccc(Cl)c1", "inhibition": 100}
{"smiles": "CN1CCc2c(sc(NC(=O)/C=C\\C(=O)Nc3cccc4ccccc34)c2C(N)=O)C1", "inhibition": 100}
{"smiles": "CCCC(Nc1sc(Cc2ccccc2)cc1C(N)=O)C(=O)NC(N)=O", "note": "(centres undefined)", "inhibition": 100}
